Reference: publication PMC6566782, “Prodrugs for Skin Delivery of Menahydroquinone-4, an Active Form of Vitamin K2(20), Could Overcome the Photoinstability and Phototoxicity of Vitamin K2(20)” (International Journal of Molecular Sciences, 2019)
Counter-ions that a name gives are not always drawn. Like-named read-outs stand apart in the source and are kept apart here.

Assays:
[1] = Photostability in ethanol under artificial sunlight (12,000 lx), LC-MS/MS; assay type: physicochemical; details: for main degradation product: sunlight irradiation (MKH-SUC also under shading); for photostability relative to MK-4: ethanol; for half-life at 1 µM: ethanol solution in quartz cells, read-out: half-life (t1/2) of degradation (converted)
Protocol: The relative irradiance of artificial sunlight at wavelengths of 300 to 800 nm is almost equal to that of natural sunlight, according to the manufacturer. […] MKH-SUC concentration decreased according to an apparent first order rate both with and without shading, although the rate of decrease was accelerated without shading. MKH-DMG and MKH-SUC were more photostable than MK-4 by ca. 50- and 3-fold, respectively.
(§1) Solutions of MK-4 and MKH derivatives in ethanol (1 µM) were irradiated with artificial sunlight (SOLAX 100 W XC-100 B, Seric Ltd., Tokyo, Japan) at 12,000 lx in quartz cells. Illuminance was measured using a digital luminometer (LX-1108, Mother Tool). Irradiation samples (1 µM in ethanol) were irradiated with artificial sunlight at 12,000 lx, and with monochromatic light (279, 341, 373, 404, and 435 nm) using a multi-wavelength irradiation spectrometer (MM 3, Bunkoukeiki Co., Ltd., Tokyo, Japan). Irradiation intensity was measured using an irradiation energy measurement power meter (MM 3, Bunkoukeiki Co., Ltd.).
(§2) LC-MS/MS was performed using an LCMS-8050 Liquid Chromatograph Mass Spectrometer (Shimadzu, Kyoto, Japan) and Shimadzu HPLC System (system controller (CBM-20A), pump (LD-20AD), degasser (DGU-20As), UV detector (SPD-20A), and auto injector (SIL-20AC HT)). Separations were performed on a CAPCELL PAK C18 UG120 (3 μm, 2.0 mm × 100 mm, Shiseido Co., Ltd., Tokyo, Japan) using a mobile phase of 10 mmol/L ammonium acetate and 0.1% acetic acid in methanol and water (97:3) at a flow rate of 0.4 mL/min. Column temperature was maintained at 40 °C. The mass spectrometer was equipped with an electrospray ionization and was run in positive ion mode. Identification and quantitation were based on MS/MS-multiple reaction monitoring mode using transition ions as follows: m/z 445 → 187 for the [M+H]^+ MK-4 adduct, m/z 445 → 187 for the [M + H]^+ chromenol adduct, 619 → 58 for the [M + H]^+ MKH-DMG adduct, m/z 532 → 58 for the [M + H]^+ MKH-mono-DMG adduct, m/z 664 → 187 for the [M + H]^+ MKH-SUC adduct, m/z 564 → 187 for the [M + H]^+ MKH-mono-SUC adduct, and m/z 461 → 81 for the [M + H]^+ MKO adduct.

[2] = Photostability in ethanol under monochromatic light of different wavelengths, LC-MS/MS; assay type: physicochemical; set-up: key: -: No decomposition; details: 1 µM in ethanol, 25 °C
Protocol: To evaluate the effect of irradiation wavelength on photostability of MK-4 and MKH-ester derivatives, 1 μM solutions of MK-4, MKH-DMG, and MKH-SUC in ethanol were irradiated with a xenon light source monochromatic light at 279, 341, 373, 404, or 435 nm, and the concentration of each compound was measured by LC-MS/MS. The log of concentration of each compound was plotted against irradiation energy (Figure 3), and the rates and half-life energies of degradation were obtained from slopes (Table 2). […] Hydrolytic degradations of MKH-DMG and MKH-SUC to their corresponding monoesters were accelerated only at the short wavelength of 279 nm (Figure 3B,C).
as §1, §2

HaCaT cells [3] = test: Intracellular ROS generation assay (DCFH-DA) with or without UVA irradiation; assay type: cell-based, Human; details: UVA irradiation 15 J/cm^2
Protocol: (§3) The in vitro phototoxicity of MK-4 and MKH derivatives were assessed by measuring the intracellular ROS generation and the viability of human epidermal keratinocyte cells (HaCaT) after UVA irradiation in the presence or absence of MK-4 and MKH derivatives. Intracellular ROS generation was determined using the cell permeable probe 2′,7′-dichlorofluorescein diacetate (DCFH-DA), which rapidly reacts with hydroxyl radicals. Cells without drug treatment or UVA irradiation were used as the control. ROS generation and cell viability are shown in Figure 5 and Figure 6, respectively.
Intracellular ROS generation was measured using 2′,7′-dichlorofluorescein diacetate (DCFH-DA; Invitrogen, Carlsbad, CA, USA) as a fluorescent probe. HaCaT cells were seeded at 1.0 × 10^5 cells/well in 96-well plates and cultured overnight. Thereafter, cells were washed with PBS and incubated with 10 µM DCFH-DA solution in PBS at 37 °C for 1 h. Following incubation, test compound solutions in PBS described above were added to each well and re-incubated for 1 h. After incubation, cells were irradiated with UVA at an irradiation intensity of 15 J/cm^2 and the fluorescence intensity (Ex: 485 nm, Em: 530 nm) was measured using an Infinite M200 PRO (Tecan Life Sciences).

HaCaT cells [4] = test: Cell viability assay (CellTiter-Glo) 24 h after UVA irradiation; assay type: cell-based, Human; details: 24 h after UVA irradiation 15 J/cm^2
Protocol: as §3
HaCaT cells were seeded at 1.0 × 10^5 cells/well in 96-well plates and cultured overnight. Thereafter, cells were washed with PBS, and test compound solutions in PBS described above were added to each well and re-incubated for 1 h. After incubation, cells were irradiated with UVA at an irradiation intensity of 15 J/cm^2. After irradiation, cells were washed twice with PBS and replaced in culture medium. After 24 h incubation, cell viability was measured using a CellTiter-Glo® Luminescent Cell Viability Assay (Promega, Madison, WI, USA).

[5] = test system: hepatocellular carcinoma (HCC) cells; set-up: method as in PMID 30013007; details: compared with MK-4 ref 17; cited from earlier work
[6] = Singlet oxygen generation assay (p-nitrosodimethylaniline-based ROS assay) after UVA irradiation; assay type: physicochemical; details: phosphate-buffered aqueous solution pH 7.4, UVA irradiation 0–15 J/cm^2
Protocol: It has been reported that singlet oxygen promotes the peroxidation of skin surface lipids, resulting in the induction of skin inflammation. Thus, we measured the irradiation intensity-dependent generation of singlet oxygen by MK-4, MKH-DMG, and MKH-SUC in phosphate-buffered aqueous solution after UVA irradiation using a p-nitrosodimethylaniline-based ROS assay (Figure 4).
MK-4 and MKH derivatives were dissolved in a phosphate buffer (NaPB, pH 7.4) containing 0.2% polyoxyethylene hydrogenated castor oil 40 (HCO 40, obtained as a gift sample from Nikko Chemicals Co., Ltd., Osaka, Japan), 2% dimethyl sulfoxide, and 0.1% glycerol. The solutions were treated according to the singlet oxygen assay method (The Japanese Center for the Validation of Alternative Methods, JaCVAM) and irradiated with UVA light from a CL-1000L UV Crosslinker (UVP, Upland, CA, USA). Absorbance was measured using an Infinite M200 PRO (Tecan Life Sciences, Zurich, Switzerland).

[7] = set-up: method as in PMID 7724483; details: physiological pH 7.4 ref 14; cited from earlier work
cultured epidermis = test system: cultured epidermis; set-up: method as in doi:10.2772/23121; details: UVA irradiation ref 13; cited from earlier work
[8] = 1 µM in ethanol, artificial sunlight 12,000 lx, 25 °C
[9] = artificial sunlight 12,000 lx, 25 °C
[10] = 1 µM in ethanol, shading (covered with aluminum foil during irradiation), 25 °C

SMILES	apparent first order rate constant (k) of degradation [1, 8]	main degradation product ([1]; 1 µM in ethanol)	photostability relative to MK-4 [1, 9]	half-life at 1 µM [1, 8]	rate constant (k) of degradation ([2]; monochromatic light 279 nm)	rate constant (k) of degradation ([2]; monochromatic light 341 nm)	rate constant (k) of degradation ([2]; monochromatic light 373 nm)	rate constant (k) of degradation ([2]; monochromatic light 404 nm)	rate constant (k) of degradation ([2]; monochromatic light 435 nm)	intracellular ROS level (HaCaT cells [3])	cell viability (HaCaT cells [4])	delivery of MKH into HCC cells [5]	singlet oxygen generation [6]	other results
CC(C)=CCC/C(C)=C/CC/C(C)=C/CC/C(C)=C/Cc1c(C)c(OC(=O)CN(C)C)c2ccccc2c1OC(=O)CN(C)C [MKH-DMG, menahydroquinone-4 1,4-bis-N,N-dimethylglycinate hydrochloride]	0.167 h⁻¹	MKH-mono-DMG	ca. 50 fold	249 min	0.146 J^−1·cm^2	- ^b	- ^b	- ^b	- ^b	no significant changes	unaffected	more effectively than MK-4	little generation of singlet oxygen	concentration change under shading ([1]; 1 µM in ethanol, shading, 25 °C): unchanged under shading; half-life energy (E1/2) of degradation ([2]; monochromatic light 341 nm): - ^b; half-life energy (E1/2) of degradation ([2]; monochromatic light 373 nm): - ^b; half-life energy (E1/2) of degradation ([2]; monochromatic light 404 nm): - ^b; half-life energy (E1/2) of degradation ([2]; monochromatic light 435 nm): - ^b; partition coefficient (log P) [7]: 3.66
CC(C)=CCC/C(C)=C/CC/C(C)=C/CC/C(C)=C/Cc1c(C)c(OC(=O)CCC(=O)O)c2ccccc2c1OC(=O)CCC(=O)O [MKH-SUC, menahydroquinone-4 1,4-bis-hemisuccinate]	2.796 h⁻¹	MKH-mono-SUC	~3 fold	14.9 min	0.110 J^−1·cm^2	0.069 J^−1·cm^2	0.059 J^−1·cm^2	0.061 J^−1·cm^2	0.068 J^−1·cm^2	no significant changes	unaffected	more effectively than MK-4	little generation of singlet oxygen	apparent first order rate constant (k) of degradation [1, 10]: 0.883 h⁻¹; half-life at 1 µM [1, 10]: 47.1 min
COc1cc(O)c(C(=O)c2ccccc2)cc1S(=O)(=O)O [sulisobenzone, reference compound]	–	–	–	–	–	–	–	–	–	–	–	–	little generation of singlet oxygen	–
CC1=C(C/C=C(\C)CCC[C@H](C)CCC[C@H](C)CCCC(C)C)C(=O)c2ccccc2C1=O [vitamin K1]	–	–	–	–	–	–	–	–	–	–	–	–	–	phototoxicity against cultured epidermis (cultured epidermis): exhibits phototoxicity
